Patent publication US10278957B2, “Opioid agonist peptides and uses thereof” (Protagonist Therapeutics, Inc., priority 2017, dated 2019)
Square brackets hold non-standard residues; d marks the D form. Peptide text beside a SMILES is read from it. Phe(3,4-(OMe)2) = COc1ccc(C[C@H](N)C(=O)O)cc1OC; Phe(3,4-Cl2) = N[C@@H](Cc1ccc(Cl)c(Cl)c1)C(=O)O; Bip = N[C@@H](Cc1ccc(-c2ccccc2)cc1)C(=O)O; Phe(4-CN) = N#Cc1ccc(C[C@H](N)C(=O)O)cc1; Dip = N[C@H](C(=O)O)C(c1ccccc1)c1ccccc1; Phe(4-F) = N[C@@H](Cc1ccc(F)cc1)C(=O)O; Dmt = Cc1cc(O)cc(C)c1C[C@H](N)C(=O)O; hPhe = N[C@@H](CCc1ccccc1)C(=O)O; β3hF = N[C@H](CC(=O)O)Cc1ccccc1; Nle = CCCC[C@H](N)C(=O)O; Sar = CNCC(=O)O

How the values were obtained:
μ-opioid receptor (MOR) = biological target: T1, μ-opioid receptor (MOR) (Homo sapiens, UniProt P35372); assay: MOR agonist cAMP assay (HitHunter cAMP, forskolin-stimulated); assay type: cell-based
T1 construct: host or cells: cAMP Hunter CHO-K1 OPRM1 Gαi cell line
T1 sequence (P35372 whole entry): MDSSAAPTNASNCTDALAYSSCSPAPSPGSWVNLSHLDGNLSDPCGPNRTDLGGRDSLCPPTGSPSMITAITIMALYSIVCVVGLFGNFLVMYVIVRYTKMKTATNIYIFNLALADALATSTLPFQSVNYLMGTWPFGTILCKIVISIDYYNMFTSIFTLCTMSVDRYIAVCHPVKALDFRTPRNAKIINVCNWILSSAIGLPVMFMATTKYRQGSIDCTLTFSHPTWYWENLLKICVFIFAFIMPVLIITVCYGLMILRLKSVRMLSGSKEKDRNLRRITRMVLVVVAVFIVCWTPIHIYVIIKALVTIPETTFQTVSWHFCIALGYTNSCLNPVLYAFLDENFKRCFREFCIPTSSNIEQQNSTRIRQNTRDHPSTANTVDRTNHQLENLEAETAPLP
Experimental: (§1) The HitHunter® cAMP chemiluminescent assay kit (DiscoveRx, Cat# 90-0075 SM25) was used to detect cAMP production in cAMP Hunter™ Gαi cell lines over expressing either Human-ORPM1 (Discoverx, Catalog# 95-0107C2) or Human-ORPD1 (DiscoveRx, Catalog# 95-0108C2). Opioid agonist binding to the Gαi receptors inhibits the intracellular cAMP accumulation induced by forskolin, which activates adenylate cyclase and increases intracellular levels of cAMP.
(§2) Cells were cultured in media consisting of Ham's F-12 Nutrient Mix (Life Technologies, Catalog#31765035), 10% FBS (Life Technologies, Catalog# 16140-071), 4 mM GlutaMAX (Life Technologies, Catalog#35050-061), […] (Life Technologies), 100 ug/ml of Penn-Strep (Life Technologies) and 0.5 mg/ml Geneticin (Life Technologies, Catalog# 10131-027). The cultures were maintained at 37° C. under 5% CO2.
(§3) In preparation for cAMP assay, the cells were seeded at a density of 300,000 cells/ml in 100 ul of media/well in 96-well microplate. Wells that were designated for cAMP standards were left empty.
(§4) Opioid agonist serial dilutions were prepared in separate dilution plate (11-point series of 3× (3-fold) dilution) in Cell Assay buffer, including 3× forskolin for Gαi target. For Hunter CHO-K1 OPRM1 or CHO-K1 OPRD1 Gαi Cell Lines, the final forskolin concentration was 20 uM.
(§5) 15 ul of each 3× opioid agonist serial dilution was added in the presence of forskolin in duplicate to the designated wells. The final concentration of each dilution was at 3× of the final screening concentration. The assay plate was incubated for 30 min, at 37° C. under 5% CO2.
(§6) Cellular cAMP concentrations were measured using the HitHunter cAMP Assay kit following the manufacturer's protocol. HitHunter cAMP assay is a gain-of-signal competitive immunoassay based on Enzyme Fragment Complementation (EFC) technology. The kit uses β-galactosidase (β-gal) enzyme split into Enzyme Donor (ED) and Enzyme Acceptor (EA). The cellular cAMP and ED-labelled cAMP compete for anti-cAMP antibody. […] When cellular cAMP level is high, it competes for the anti-cAMP antibody, thereby releasing ED-cAMP to complement with EA to produce a luminescent signal. The amount of signal is directly proportional to the amount of cAMP in cells and can be quantified using cAMP standards. The assay plates were read using a PerkinElmer Envision instrument to detect the chemiluminescence signal in each well (luminescence reader at 0.1 to 1 second/well). Data analysis was performed using Graphpad Prism 7.EC50 was calculated by nonlinear regression, using the four-parameter hill equation.

δ-opioid receptor (DOR) = biological target: T2, δ-opioid receptor (DOR) (Homo sapiens, UniProt P41143); assay: DOR agonist cAMP assay (HitHunter cAMP, forskolin-stimulated); assay type: cell-based
T2 construct: host or cells: cAMP Hunter CHO-K1 OPRD1 Gαi cell line
T2 sequence (P41143 whole entry): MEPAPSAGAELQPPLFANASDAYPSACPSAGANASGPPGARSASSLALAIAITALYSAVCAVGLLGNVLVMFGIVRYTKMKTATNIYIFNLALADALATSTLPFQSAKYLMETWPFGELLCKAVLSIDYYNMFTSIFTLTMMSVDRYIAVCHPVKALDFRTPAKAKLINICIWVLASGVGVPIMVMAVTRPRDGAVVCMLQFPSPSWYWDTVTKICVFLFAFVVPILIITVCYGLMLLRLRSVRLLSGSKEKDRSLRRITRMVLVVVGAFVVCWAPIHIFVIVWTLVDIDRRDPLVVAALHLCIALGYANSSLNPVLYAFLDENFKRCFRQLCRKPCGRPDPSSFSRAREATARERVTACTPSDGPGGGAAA
Experimental: as §1, §2, §3, §4, §5, §6

Row | Structure (SMILES) | EC50 (μ-opioid receptor (MOR)) [nM] | EC50 (δ-opioid receptor (DOR)) [nM]
1 | Cc1cc(O)cc(C)c1C[C@H](N)C(=O)N[C@H](CC(=O)O)C(=O)NCC(=O)N[C@H](CC(=O)N(C)[C@H](C(=O)O)C(C)C)Cc1ccccc1 [compound 173] | < 1 | < 1
2 | CC[C@H](C)[C@H](NC(=O)[C@@H](C)NC(=O)[C@@H](N)Cc1c(C)cc(O)cc1C)C(=O)N[C@H](CC(=O)N(C)CC(N)=O)Cc1ccccc1 [compound 68] (H-[Dmt][dA]I[β3hF][Sar]-NH2) | < 1 | 10 to 50
3 | Cc1cc(O)cc(C)c1C[C@H](N)C(=O)N[C@H](CC(=O)O)C(=O)NCC(=O)N[C@H](CC(=O)N(C)[C@@H](CC(C)C)C(=O)O)Cc1ccccc1 [compound 169] | < 1 | < 1
4 | C[C@@H](NC(=O)[C@@H](N)Cc1ccc(C(=O)O)cc1)C(=O)NCC(=O)N[C@H](CC(=O)N(C)CC(N)=O)Cc1ccccc1 [compound 89] | 50 to 200 | 50 to 200
5 | Cc1cc(O)cc(C)c1C[C@H](N)C(=O)N[C@H](CC(=O)O)C(=O)NCC(=O)N[C@H](CC(=O)N(C)[C@@H](CC1CCCCC1)C(=O)O)Cc1ccccc1 [compound 175] | < 1 | < 1
6 | Cc1cc(O)cc(C)c1C[C@H](N)C(=O)N[C@H](CCCNC(=N)N)C(=O)N[C@@H](Cc1ccc(C#N)cc1)C(=O)N(C)CC(N)=O [compound 20] (H-[Dmt][dR][Phe(4-CN)][Sar]-NH2) | 1 to 10 | < 1
7 | Cc1cc(O)cc(C)c1C[C@H](N)C(=O)N[C@H](CC(=O)O)C(=O)NCC(=O)N[C@H](CC(=O)N(C)[C@@H](Cc1c[nH]c2ccccc12)C(=O)O)Cc1ccccc1 [compound 171] | < 1 | < 1
8 | CCCC[C@@H](C(=O)O)N(C)C(=O)C[C@H](Cc1ccc(O)cc1)NC(=O)CNC(=O)[C@@H](C)NC(=O)[C@@H](N)Cc1c(C)cc(C(N)=O)cc1C [compound 168] | 1 to 10 | < 1
9 | CCC[C@@H](C(=O)O)N(C)C(=O)C[C@H](Cc1ccccc1)NC(=O)CNC(=O)[C@@H](C)NC(=O)[C@@H](N)Cc1c(C)cc(O)cc1C [compound 162] | < 1 | < 1
10 | Cc1cc(O)cc(C)c1C[C@H](N)C(=O)N[C@H](CCCNC(=N)N)C(=O)N[C@@H](Cc1ccc(F)cc1)C(=O)N(C)CC(N)=O [compound 19] (H-[Dmt][dR][Phe(4-F)][Sar]-NH2) | < 1 | 1 to 10
11 | Cc1cc(O)cc(C)c1C[C@H](N)C(=O)N[C@H](CCCNC(=N)N)C(=O)N[C@@H](Cc1ccc(-c2ccccc2)cc1)C(=O)N(C)CC(N)=O [compound 23] (H-[Dmt][dR][Bip][Sar]-NH2) | – | < 1
12 | Cc1cc(O)cc(C)c1C[C@H](N)C(=O)N[C@H](CCCNC(=N)N)C(=O)N[C@@H](Cc1ccc(Cl)c(Cl)c1)C(=O)N(C)CC(N)=O [compound 22] (H-[Dmt][dR][Phe(3,4-Cl2)][Sar]-NH2) | – | 10 to 50
13 | CCCC[C@H](NC(=O)[C@H](Cc1c[nH]c2ccccc12)NC(=O)[C@@H](CCCNC(=N)N)NC(=O)[C@@H](N)Cc1c(C)cc(O)cc1C)C(N)=O [compound 31] (H-[Dmt][dR]W[Nle]-NH2) | – | 10 to 50
14 | Cc1cc(O)cc(C)c1C[C@H](N)C(=O)N[C@H](C)C(=O)NCC(=O)N[C@H](CC(=O)N(CC(N)=O)CC1CCCCC1)Cc1ccccc1 [compound 119] | – | 1 to 10
15 | Cc1cc(O)cc(C)c1C[C@H](N)C(=O)N[C@H](C)C(=O)NCC(=O)N[C@@H](Cc1ccc(F)cc1)C(=O)NCC(N)=O [compound 38] | – | < 1
16 | Cc1cc(O)cc(C)c1C[C@H](N)C(=O)N[C@H](C)C(=O)NCC(=O)N[C@H](CC(=O)N(CCc1ccccc1)CC(N)=O)Cc1ccccc1 [compound 121] | – | < 1
17 | CCCCCCCCN(CC(N)=O)C(=O)C[C@H](Cc1ccccc1)NC(=O)CNC(=O)[C@@H](C)NC(=O)[C@@H](N)Cc1c(C)cc(O)cc1C [compound 115] | – | 10 to 50
18 | COc1ccc(C[C@H](NC(=O)[C@@H](CCCNC(=N)N)NC(=O)[C@@H](N)Cc2c(C)cc(O)cc2C)C(=O)N(C)CC(N)=O)cc1OC [compound 25] (H-[Dmt][dR][Phe(3,4-(OMe)2)][Sar]-NH2) | – | > 200

Row | Structure (SMILES) | EC50 (μ-opioid receptor (MOR)) [nM] | EC50 (δ-opioid receptor (DOR)) [nM]
19 | Cc1cc(O)cc(C)c1C[C@H](N)C(=O)N[C@H](C)C(=O)NCC(=O)N1Cc2ccccc2C[C@H]1C(=O)N(C)CC(N)=O [compound 107] | – | 10 to 50
20 | Cc1cc(O)cc(C)c1C[C@H](N)C(=O)N[C@H](CCCNC(=N)N)C(=O)N[C@@H](Cc1ccccc1)C(=O)N[C@H](C(N)=O)C(c1ccccc1)c1ccccc1 [compound 36] (H-[Dmt][dR]F[Dip]-NH2) | – | 10 to 50
21 | Cc1cc(O)cc(C)c1C[C@H](N)C(=O)N[C@H](C)C(=O)N(C)CC(=O)N[C@H](CC(=O)N(C)CC(N)=O)Cc1ccccc1 [compound 64] | – | 50 to 200
22 | Cc1cc(O)cc(C)c1C[C@H](N)C(=O)N[C@H](CCCNC(=N)N)C(=O)NCC(=O)N[C@H](C(N)=O)C(c1ccccc1)c1ccccc1 [compound 33] (H-[Dmt][dR]G[Dip]-NH2) | – | > 200
23 | Cc1cc(O)cc(C)c1C[C@H](N)C(=O)N[C@H](CCCNC(=N)N)C(=O)N[C@@H](Cc1ccccc1)C(=O)N[C@@H](Cc1ccc(F)cc1)C(N)=O [compound 16] (H-[Dmt][dR]F[Phe(4-F)]-NH2) | – | 10 to 50
24 | CCCC[C@@H](C(=O)O)N(C)C(=O)[C@@H](Cc1ccccc1)N(C)C(=O)CNC(=O)[C@@H](C)NC(=O)[C@@H](N)Cc1c(C)cc(O)cc1C [compound 154] | < 1 | –
25 | Cc1cc(O)cc(C)c1C[C@H](N)C(=O)N[C@H](CCCNC(=N)N)C(=O)NCC(=O)N[C@@H](Cc1c[nH]c2ccccc12)C(N)=O [compound 34] (H-[Dmt][dR]GW-NH2) | – | 10 to 50
26 | Cc1cc(O)cc(C)c1C[C@H](N)C(=O)N[C@H](CCCNC(=N)N)C(=O)N[C@@H](Cc1ccccc1)C(=O)N[C@@H](CCc1ccccc1)C(N)=O [compound 18] (H-[Dmt][dR]F[hPhe]-NH2) | – | 1 to 10
27 | Cc1cc(O)cc(C)c1C[C@H](N)C(=O)N[C@H](C)C(=O)NCC(=O)N[C@H](CC(=O)N(CCC(=O)O)CC(N)=O)Cc1ccccc1 [compound 120] | – | < 1
28 | Cc1cc(O)cc(C)c1C[C@H](N)C(=O)N[C@H](C)C(=O)NCC(=O)N[C@@H](Cc1ccc(Cl)c(Cl)c1)C(=O)NCC(N)=O [compound 41] | – | < 1
29 | Cc1cc(O)cc(C)c1C[C@H](N)C(=O)N[C@H](CCCNC(=N)N)C(=O)N(C)CC(=O)N[C@@H](Cc1c[nH]c2ccccc12)C(N)=O [compound 35] (H-[Dmt][dR][Sar]W-NH2) | – | > 200
30 | COc1ccc(C[C@H](NC(=O)[C@H](Cc2ccccc2)NC(=O)[C@@H](CCCNC(=N)N)NC(=O)[C@@H](N)Cc2c(C)cc(O)cc2C)C(N)=O)cc1OC [compound 17] (H-[Dmt][dR]F[Phe(3,4-(OMe)2)]-NH2) | – | 1 to 10
31 | Cc1cc(O)cc(C)c1C[C@H](N)C(=O)N[C@H](CCCNC(=N)N)C(=O)N[C@H](C(=O)N(C)CC(N)=O)C(c1ccccc1)c1ccccc1 [compound 26] (H-[Dmt][dR][Dip][Sar]-NH2) | – | > 200
32 | Cc1cc(O)cc(C)c1C[C@H](N)C(=O)N[C@H](CCCNC(=N)N)C(=O)N[C@@H](Cc1ccccc1)C(=O)N[C@@H](CC(C)C)C(N)=O [compound 29] (H-[Dmt][dR]FL-NH2) | – | 10 to 50
33 | Cc1cc(O)cc(C)c1C[C@H](N)C(=O)N[C@H](C)C(=O)NCC(=O)N[C@H](CC(=O)N(CC(N)=O)C1CCCCC1)Cc1ccccc1 [compound 123] | – | < 1
34 | CC(=O)N[C@@H](Cc1c(C)cc(O)cc1C)C(=O)N[C@H](C)C(=O)NCC(=O)N[C@H](CC(=O)N(C)CC(N)=O)Cc1ccccc1 [compound 86] | – | 10 to 50
35 | CCCC[C@H](NC(=O)[C@H](CCc1ccccc1)NC(=O)CNC(=O)[C@@H](C)NC(=O)[C@@H](N)Cc1c(C)cc(O)cc1C)C(N)=O [compound 49] | < 1 | –
